Results on 8 compounds are retold here after ChEMBL document CHEMBL1142084, “In vitro activities of tigecycline and eight other antimicrobials against different Nocardia species identified by molecular methods” (2007).

In brackets after ≈: the same amount, converted by molar mass.

Format in all cases: functional
For assay [1], the system named is Nocardia otitidiscaviarum. Put plainly: Antimicrobial activity against Nocardia otitidiscaviarum after 72 hrs by microdilution method. (In general: In broth dilution the organism is exposed to a series of concentrations in liquid medium.)
The subject of another assay is Nocardia abscessus. As to the kind of experiment: Antimicrobial activity against Nocardia abscessus after 72 hrs by microdilution method.
The next assay deals with Nocardia nova. As to the kind of experiment: Antimicrobial activity against Nocardia nova after 72 hrs by microdilution method.
The test system of the next assay is Nocardia carnea. Put plainly: Antimicrobial activity against Nocardia carnea after 72 hrs by microdilution method.
For another assay, the system named is Nocardia sp. As to the kind of experiment: Antimicrobial activity against Nocardia sp. after 72 hrs by microdilution method.
A further assay deals with Nocardia brasiliensis. Put plainly: Antimicrobial activity against Nocardia brasiliensis after 72 hrs by microdilution method.
Another assay has as its system Nocardia veterana. As to the kind of experiment: Antimicrobial activity against Nocardia veterana after 72 hrs by microdilution method.
For another assay, the system named is Nocardia farcinica. As to the kind of experiment: Antimicrobial activity against Nocardia farcinica after 72 hrs by microdilution method.
The test system of the next assay is Nocardia transvalensis. As to the kind of experiment: Antimicrobial activity against Nocardia transvalensis after 72 hrs by microdilution method.
In a further assay the test system is Nocardia cyriacigeorgica. Put plainly: Antimicrobial activity against Nocardia cyriacigeorgica after 72 hrs by microdilution method.
Another assay has as its system Nocardia beijingensis. As to the kind of experiment: Antimicrobial activity against Nocardia beijingensis after 72 hrs by microdilution method.

On to `NCC[C@H](O)C(=O)N[C@@H]1C[C@H](N)[C@@H](O[C@H]2O[C@H](CN)[C@@H](O)[C@H](O)[C@H]2O)[C@H](O)[C@H]1O[C@H]1O[C@H](CO)[C@@H](O)[C@H](N)[C@H]1O` [AMIKACIN], for which the MIC (usually the least concentration at which growth counts as inhibited) was 1 µg/mL (≈ 1.71 µM) in assay [1]; at most 0.06 µg/mL in the assay with Nocardia abscessus; 0.12 µg/mL (≈ 0.205 µM) in the assay with Nocardia nova; 0.5 µg/mL (≈ 0.854 µM) with Nocardia carnea; 0.25 µg/mL (≈ 0.427 µM) against Nocardia sp.; 1 µg/mL (≈ 1.71 µM) against Nocardia brasiliensis. Besides, the MIC against Nocardia veterana is 0.25 µg/mL (≈ 0.427 µM); in the assay on Nocardia farcinica, 1 µg/mL (≈ 1.71 µM); against Nocardia transvalensis it was 32 µg/mL (≈ 54.6 µM); with Nocardia cyriacigeorgica it was at most 0.06 µg/mL; in the assay on Nocardia beijingensis it was at most 0.06 µg/mL.
Regarding `C[C@@H](O)[C@H]1C(=O)N2C(C(=O)O)=C(S[C@@H]3CN[C@H](C(=O)Nc4cccc(C(=O)O)c4)C3)[C@H](C)[C@H]12` [ERTAPENEM], the MIC in assay [1] was 1 µg/mL (≈ 2.1 µM); with Nocardia abscessus it was 0.5 µg/mL (≈ 1.05 µM); in the assay on Nocardia nova, 0.5 µg/mL (≈ 1.05 µM); in the assay with Nocardia carnea it was 2 µg/mL (≈ 4.21 µM); against Nocardia sp., 0.25 µg/mL (≈ 0.526 µM); in the assay with Nocardia brasiliensis, 2 µg/mL (≈ 4.21 µM). Besides, the MIC in the assay on Nocardia veterana is 0.25 µg/mL (≈ 0.526 µM); in the assay on Nocardia farcinica, 4 µg/mL (≈ 8.41 µM); against Nocardia transvalensis it was above 64 µg/mL; against Nocardia cyriacigeorgica, at most 0.06 µg/mL; against Nocardia beijingensis, 2 µg/mL (≈ 4.21 µM).
For `C[C@@H](O)[C@H]1C(=O)N2C(C(=O)O)=C(SCCNC=N)C[C@H]12` [IMIPENEM ANHYDROUS], the MIC in [1] is 0.5 µg/mL (≈ 1.67 µM); in the assay with Nocardia abscessus, 0.5 µg/mL (≈ 1.67 µM); against Nocardia nova, 0.12 µg/mL (≈ 0.401 µM); in the assay on Nocardia carnea, 0.5 µg/mL (≈ 1.67 µM); in the assay on Nocardia sp., at most 0.06 µg/mL; in the assay with Nocardia brasiliensis, 1 µg/mL (≈ 3.34 µM). Besides, the MIC is at most 0.06 µg/mL against Nocardia veterana; 1 µg/mL (≈ 3.34 µM) against Nocardia farcinica; above 64 µg/mL against Nocardia transvalensis; at most 0.06 µg/mL in the assay on Nocardia cyriacigeorgica; 0.5 µg/mL (≈ 1.67 µM) with Nocardia beijingensis.
For `CC(=O)NC[C@H]1CN(c2ccc(N3CCOCC3)c(F)c2)C(=O)O1` [LINEZOLID], the minimum inhibitory concentration (MIC) was at most 0.06 µg/mL in [1]; at most 0.06 µg/mL against Nocardia abscessus; 0.12 µg/mL (≈ 0.356 µM) with Nocardia nova; at most 0.06 µg/mL in the assay on Nocardia carnea; at most 0.06 µg/mL in the assay with Nocardia sp.; 1 µg/mL (≈ 2.96 µM) in the assay on Nocardia brasiliensis. Also, the MIC against Nocardia veterana is 0.25 µg/mL (≈ 0.741 µM); against Nocardia farcinica, 0.12 µg/mL (≈ 0.356 µM); with Nocardia transvalensis it was 1 µg/mL (≈ 2.96 µM); against Nocardia cyriacigeorgica it was 0.12 µg/mL (≈ 0.356 µM); against Nocardia beijingensis it was at most 0.06 µg/mL.
Turning to `C[C@@H](O)[C@H]1C(=O)N2C(C(=O)O)=C(S[C@@H]3CN[C@H](C(=O)N(C)C)C3)[C@H](C)[C@H]12` [MEROPENEM], the MIC in assay [1] was 1 µg/mL (≈ 2.61 µM); against Nocardia abscessus, 0.25 µg/mL (≈ 0.652 µM); in the assay on Nocardia nova it was 0.5 µg/mL (≈ 1.3 µM); in the assay with Nocardia carnea, 1 µg/mL (≈ 2.61 µM); in the assay with Nocardia sp., at most 0.06 µg/mL; in the assay with Nocardia brasiliensis, 1 µg/mL (≈ 2.61 µM). In addition, the MIC was 0.12 µg/mL (≈ 0.313 µM) against Nocardia veterana; 2 µg/mL (≈ 5.22 µM) with Nocardia farcinica; above 64 µg/mL with Nocardia transvalensis; at most 0.06 µg/mL in the assay with Nocardia cyriacigeorgica; 2 µg/mL (≈ 5.22 µM) against Nocardia beijingensis.
With `CN(C)c1ccc(O)c2c1C[C@H]1C[C@H]3[C@H](N(C)C)C(O)=C(C(N)=O)C(=O)[C@@]3(O)C(O)=C1C2=O` [MINOCYCLINE], the MIC in assay [1] was 0.5 µg/mL (≈ 1.09 µM); in the assay on Nocardia abscessus, at most 0.06 µg/mL; against Nocardia nova it was 1 µg/mL (≈ 2.19 µM); in the assay with Nocardia carnea, 0.5 µg/mL (≈ 1.09 µM); against Nocardia sp. it was 0.25 µg/mL (≈ 0.546 µM); with Nocardia brasiliensis it was 1 µg/mL (≈ 2.19 µM). The MIC is 1 µg/mL (≈ 2.19 µM) in the assay on Nocardia veterana; 1 µg/mL (≈ 2.19 µM) against Nocardia farcinica; 1 µg/mL (≈ 2.19 µM) against Nocardia transvalensis; at most 0.06 µg/mL against Nocardia cyriacigeorgica; at most 0.06 µg/mL in the assay with Nocardia beijingensis.
In the case of `COc1c(N2C[C@@H]3CCCN[C@@H]3C2)c(F)cc2c(=O)c(C(=O)O)cn(C3CC3)c12` [MOXIFLOXACIN], the minimum inhibitory concentration (MIC) is at most 0.06 µg/mL in assay [1]; 1 µg/mL (≈ 2.49 µM) with Nocardia abscessus; 2 µg/mL (≈ 4.98 µM) with Nocardia nova; at most 0.06 µg/mL against Nocardia carnea; at most 0.06 µg/mL against Nocardia sp.; at most 0.06 µg/mL in the assay with Nocardia brasiliensis. The MIC was 0.5 µg/mL (≈ 1.25 µM) against Nocardia veterana; at most 0.06 µg/mL in the assay on Nocardia farcinica; 0.12 µg/mL (≈ 0.299 µM) against Nocardia transvalensis; at most 0.06 µg/mL against Nocardia cyriacigeorgica; at most 0.06 µg/mL with Nocardia beijingensis.
For `CN(C)c1cc(NC(=O)CNC(C)(C)C)c(O)c2c1C[C@H]1C[C@H]3[C@H](N(C)C)C(O)=C(C(N)=O)C(=O)[C@@]3(O)C(O)=C1C2=O` [TIGECYCLINE], the MIC in [1] is at most 0.06 µg/mL; in the assay with Nocardia abscessus, at most 0.06 µg/mL; with Nocardia nova, 0.5 µg/mL (≈ 0.854 µM); against Nocardia carnea, at most 0.06 µg/mL; in the assay on Nocardia sp., at most 0.06 µg/mL; against Nocardia brasiliensis it was at most 0.06 µg/mL. Also, the MIC is 0.12 µg/mL (≈ 0.205 µM) in the assay on Nocardia veterana; 1 µg/mL (≈ 1.71 µM) in the assay on Nocardia farcinica; 2 µg/mL (≈ 3.41 µM) with Nocardia transvalensis; at most 0.06 µg/mL against Nocardia cyriacigeorgica; 0.25 µg/mL (≈ 0.427 µM) in the assay with Nocardia beijingensis.
